Test results from patent US20090221656A1, “Drug Combinations” (priority 2006, published 2009).

How the values were obtained:
[1] = NA and DA tissue levels in heart and brain after administration of Compound 1; format: in vivo, mice and rats; conditions: mouse and rat, in vivo; mice and rats; after administration
Source text: (§1) Compound 1 ((R)-5-(2-aminoethyl)-1-(6,8-difluorochroman-3-yl)-1,3-dihydroimidazole-2-thione hydrochloride) is a new chemical entity that integrates a series of potent inhibitors of dopamine β-hydroxylase (DBH) that were designed and synthesised incorporating modifications to the core structure of nepicastat. The aim was to provide new DBH inhibitors exerting minimal effects on dopamine (DA) and noradrenaline (NA) levels in the brain. Compound 1 is in a fact a potent and peripherally-selective DBH inhibitor. […] Compound 1 is thus presented as a candidate for clinical evaluation for the treatment of chronic heart failure and hypertension. Compound 1, together with a series of related compounds, is described in WO 2004/033447.

[2] = tested on: dopamine β-hydroxylase (DBH); test: as above; format: in vivo, mice and rats
Source text: as §1

[3] = mice and rats, at Tmax (9 h after administration)

In the case of `Cl.NCCc1c[nH]c(=S)n1[C@H]1COc2c(F)cc(F)cc2C1` [Compound 1, (R)-5-(2-aminoethyl)-1-(6,8-difluorochroman-3-yl)-1,3-dihydroimidazole-2-thione hydrochloride], the Tmax [1] is reported as 9 h, the “DA tissue levels in brain” value ([2]; brain) is reported as “failed to affect” and the “NA tissue levels in brain” value ([2]; brain) is reported as “failed to affect”. For the same compound, the “NA levels in the left atrium” value [2, 3] was “reduced NA levels in a dose-dependent manner”, the “NA levels in the left ventricle” value [2, 3] was “reduced NA levels in a dose-dependent manner” and the “dose at which the maximal inhibitory effect on NA levels was attained” value ([2]; mice and rats, left atrium and left ventricle, 9 h after administration) was 100 mg/kg.
